Source: ChEMBL document CHEMBL3045562, “4-Pyridyl carbonyl compounds as thrips lures: effectiveness for Western flower thrips in y-tube bioassays” (2008)
Activity calls are given as the source filed them. The calls are words filed in the database; no cut-off is given here.

Legend:
Assay type in all cases: functional
[1] = system: Frankliniella occidentalis; assay: Thrips luring activity against female Frankliniella occidentalis (western flower thrips) assessed as trapping of thrips using compound treated yellow sticky traps relative to untreated control under commercial greenhouse
Thrips obscuratus = assay: Thrips luring activity against female New Zealand Thrips obscuratus (flower thrips) assessed as induction of thrips to walk up odor-laden arm of Y-tube olfactometer by Y-tube olfactometer bioassay
[2] = system: Frankliniella occidentalis; assay: Thrips luring activity against female Frankliniella occidentalis (western flower thrips) assessed as induction of thrips to walk up odor-laden arm of Y-tube olfactometer by Y-tube olfactometer bioassay
[3] = system: Frankliniella occidentalis; assay: Thrips luring activity against female Frankliniella occidentalis (western flower thrips) assessed as induction of thrips to walk up odor-laden arm of Y-tube olfactometer at 1 x 10^-2 uL by Y-tube olfactometer bioassay
[4] = system: Frankliniella occidentalis; assay: Thrips luring activity against female Frankliniella occidentalis (western flower thrips) assessed as induction of thrips to walk up odor-laden arm of Y-tube olfactometer at 1 x 10^-5 uL by Y-tube olfactometer bioassay
[5] = system: Frankliniella occidentalis; assay: Thrips luring activity against female Frankliniella occidentalis (western flower thrips) assessed as induction of thrips to walk up odor-laden arm of Y-tube olfactometer at 1 uL by Y-tube olfactometer bioassay
[6] = system: Frankliniella occidentalis; assay: Thrips luring activity against female Frankliniella occidentalis (western flower thrips) assessed as induction of thrips to walk up odor-laden arm of Y-tube olfactometer at 1 x 10^-1 uL by Y-tube olfactometer bioassay
[7] = system: Frankliniella occidentalis; assay: Thrips luring activity against female Frankliniella occidentalis (western flower thrips) assessed as induction of thrips to walk up odor-laden arm of Y-tube olfactometer at 5 x 10^-1 uL by Y-tube olfactometer bioassay
[8] = system: Frankliniella occidentalis; assay: Thrips luring activity against female Frankliniella occidentalis (western flower thrips) assessed as induction of thrips to walk up odor-laden arm of Y-tube olfactometer at 5 x 10^-3 uL by Y-tube olfactometer bioassay
[9] = system: Frankliniella occidentalis; assay: Thrips luring activity against female Frankliniella occidentalis (western flower thrips) assessed as induction of thrips to walk up odor-laden arm of Y-tube olfactometer at 5 x 10^-4 uL by Y-tube olfactometer bioassay
[10] = system: Frankliniella occidentalis; assay: Thrips luring activity against female Frankliniella occidentalis (western flower thrips) assessed as induction of thrips to walk up odor-laden arm of Y-tube olfactometer at 1 x 10^-3 uL by Y-tube olfactometer bioassay

## CCOC(=O)c1ccncc1 [ETHYL ISONICOTINATE]
[1]
  fold change (FC): 14
Thrips obscuratus
  MAD: 1 ×10⁻³ microL
[2]
  MAD: 1 ×10⁻⁴ microL

## CCOC(=O)c1cccnc1 [ETHYL NICOTINATE]
Thrips obscuratus
  MAD: 1 ×10⁻⁶ microL

## O=Cc1ccncc1 [4-FORMYLPYRIDINE]
[3]
  Activity: 15%
[4]
  Activity: Active

## CCCC(=O)c1ccncc1 [PROPYL 4-PYRIDYL KETONE]
[5]
  Activity: 55%
[6]
  Activity: 47%

## CC(=O)c1ccncc1 [METHYL 4-PYRIDYLKETONE]
[1]
  fold change (FC): 4.5

## CC(C)N(C(=O)c1ccncc1)C(C)C [DI-ISOPROPYL ISONICOTINAMIDE]
[7]
  Activity: 81%

## CC(C)OC(=O)c1ccncc1 [ISOPROPYL ISONICOTINATE]
[2]
  MAD: 1 ×10⁻² microL

## c1cc(C2OCCO2)ccn1 [PYRIDINE, 4-(1,3-DIOXALAN-2-YL)]
[8]
  Activity: 63%
[9]
  Activity: 48%
[7]
  Activity: 61%

## CC(C)=CCOC(=O)c1ccncc1 [ISO-PENTENYL ISONICOTINATE]
[5]
  Activity: 49%

## CCCOC(=O)c1ccncc1 [N-PROPYL ISONICOTINATE]
[2]
  MAD: 1 ×10⁻³ microL

## N#Cc1ccncc1 [ISONICOTINONITRILE]
[7]
  Activity: 39%

## COc1ccc(C=O)cc1 [ANISALDEHYDE]
[4]
  Activity: 52%

## CCOC(=O)C1CCNCC1 [ETHYL ISONIPECOTATE]
[3]
  Activity: 49%
[5]
  Activity: 63%

## CCCCC(=O)OC1CC2CCC1(C)C2(C)C (centres undefined)
[2]
  Activity: Active

## OCc1ccncc1 [PYRIDINE 4-METHANOL]
[5]
  Activity: 52%

## CCCC(O)c1ccncc1 (centres undefined) [1-(4-pyridyl)-1-butanol]
[5]
  Activity: 47%

## CCOC(=O)c1ccnc(Cl)c1
[2]
  Activity: Active

## OCCc1ccncc1 [4-(2-HYDROXYETHYL)PYRIDINE]
[3]
  Activity: 59%
[5]
  Activity: 79%
[10]
  Activity: 48%

## COC(=O)c1ccncc1 [METHYL ISONICOTINATE]
[1]
  fold change (FC): 14
[2]
  MAD: 1 ×10⁻⁶ microL
